According to EP4745134A1 (Jiangsu Yahong Meditech Co., Ltd., priority 2023, dated 2025):

Assays:
HCT116 MTAP KO cells = assay: Inhibitory activity against cell proliferation (CellTiter Glo, 6 days), HCT116 MTAP KO; format: cell-based; details: for IC50: Homo sapiens, HCT-116, 144 h, HCT116 MTAP KO cells, 6 days, CellTiter Glo, read-out: HCT116 MTAP KO IC50; for Selectivity HCT 116-WT/ HCT116 MTAP KO: ratio of IC50 HCT116-WT / HCT116 MTAP KO
Outline: (§1)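 Viability IC50s come from CellTiter Glo luminescence after 6 days' exposure to compound (8 concentrations, 4-fold steps, top 10000 nM), relative to DMSO wells. Cells were MTAP-KO or WT HCT116, seeded at 250 per well in McCoy's 5A with 10% FBS and incubated overnight before dosing.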

HCT116-WT cells = assay: Inhibitory activity against cell proliferation (CellTiter Glo, 6 days), HCT116-WT; format: cell-based; details: 144 h, HCT116-WT cells, 6 days, CellTiter Glo; read-out: HCT116-WT IC50
Outline: as §1

PRMT5-MTA = PRMT5-MTA (Homo sapiens, UniProt O14744); assay: Enzymatic inhibitory activity against PRMT5-MTA (AlphaScreen); format: biochemical; details: read-out: IC50
Sequence of PRMT5-MTA (O14744 whole entry): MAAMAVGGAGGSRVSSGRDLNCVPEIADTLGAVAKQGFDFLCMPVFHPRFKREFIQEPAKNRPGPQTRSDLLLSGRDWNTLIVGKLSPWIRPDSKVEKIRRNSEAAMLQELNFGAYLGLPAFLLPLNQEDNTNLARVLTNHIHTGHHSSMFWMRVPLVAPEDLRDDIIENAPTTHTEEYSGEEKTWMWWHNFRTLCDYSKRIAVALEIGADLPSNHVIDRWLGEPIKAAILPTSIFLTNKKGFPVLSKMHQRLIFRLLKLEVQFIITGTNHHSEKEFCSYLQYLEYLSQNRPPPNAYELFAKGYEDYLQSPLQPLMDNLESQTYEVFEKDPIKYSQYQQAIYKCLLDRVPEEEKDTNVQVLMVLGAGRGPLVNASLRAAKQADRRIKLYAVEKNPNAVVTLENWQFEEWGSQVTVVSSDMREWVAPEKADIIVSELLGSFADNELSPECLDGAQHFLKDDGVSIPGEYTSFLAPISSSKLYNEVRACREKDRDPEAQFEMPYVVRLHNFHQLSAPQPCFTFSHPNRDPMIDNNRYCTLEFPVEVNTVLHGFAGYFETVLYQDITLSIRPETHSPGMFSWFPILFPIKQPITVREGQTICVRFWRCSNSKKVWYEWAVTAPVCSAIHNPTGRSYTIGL
Sequence of PRMT5-MTA (Q9BQA1 whole entry partner): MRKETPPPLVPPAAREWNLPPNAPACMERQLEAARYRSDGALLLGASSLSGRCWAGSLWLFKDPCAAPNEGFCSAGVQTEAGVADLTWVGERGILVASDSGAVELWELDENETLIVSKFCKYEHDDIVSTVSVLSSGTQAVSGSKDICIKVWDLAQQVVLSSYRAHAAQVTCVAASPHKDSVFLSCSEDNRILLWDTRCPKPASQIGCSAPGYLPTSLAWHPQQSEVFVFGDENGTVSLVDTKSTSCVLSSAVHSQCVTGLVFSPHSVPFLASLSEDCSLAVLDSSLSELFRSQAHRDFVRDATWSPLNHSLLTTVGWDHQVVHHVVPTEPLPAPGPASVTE
Outline: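 PRMT5/[…] (1 nM) was preincubated for 30 min at room temperature with 1 µM […] and 2.5 µM SAM, then exposed to compound (10-point, 3-fold from 1000 nM) for 15 min at 23 °C. Histone H4 substrate (5 nM) was added and reacted for 45 min at 23 °C. Symmetric dimethyl-R3 H4 was detected by AlphaScreen and IC50 calculated.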

| SMILES | IC50 (HCT116 MTAP KO cells) [nM] | Selectivity HCT 116-WT/ HCT116 MTAP KO (HCT116 MTAP KO cells) | IC50 (HCT116-WT cells) [nM] | IC50 (PRMT5-MTA) [nM] |
| --- | --- | --- | --- | --- |
| Cc1cc2cc(C(=O)N(Cc3ccc(-c4cnn(C(C)C)c4)cn3)N(C)c3ncccn3)ccc2nc1N [Example 203, 2-amino-N-((5-(1-isopropyl-1H-pyrazol-4-yl)pyridin-2-yl)methyl)-N',3-dimethyl-N'-(pyrimidin-2-yl)quinoline-6-carbohydrazide] | 40 | 25.65 | 1030 | 1.8 |
| Cc1cc2cc(C(=O)N(Cc3ccc(-c4ccc(N5CCCC5)nc4)cn3)N(C)c3ncccn3)ccc2nc1N [Example 211, 2-amino-N',3-dimethyl-N'-(pyrimidin-2-yl)-N-((6'-(pyrrolidin-1-yl)-[3,3'-bipyridine]-6-yl)methyl)quinoline-6-carbohydrazide] | 84 | 18.96 | 1590 | 2.3 |
| Cc1cc2cc(C(=O)N(Cc3ccc(-c4cncs4)cn3)N(c3ncccn3)C3CC3)ccc2nc1N [Example 215, 2-amino-N'-cyclopropyl-3-methyl-N'-(pyrimidin-2-yl)-N-((5-(thiazol-5-yl)pyridin-2-yl)methyl)quinoline-6-carbohydrazide] | 7.1 | 25.07 | 178 | 5.3 |
| Cc1cc2cc(C(=O)N(Cc3ccc(-c4cnn(C(F)(F)F)c4)cn3)N(c3ncccn3)C3CC3)ccc2nc1N [Example 216, 2-amino-N'-cyclopropyl-3-methyl-N'-(pyrimidin-2-yl)-N-((5-(1-(trifluoromethyl)-1H-pyrazol-4-yl)pyridin-2-yl)methyl)qui noline-6-carbohydrazide] | 23 | 27.26 | 627 | 3.3 |
| Cc1cc2cc(C(=O)N(Cc3ccc(C4CCOC4)cn3)N(C)c3ncccn3)ccc2nc1N (centres unmarked) [Example 217, 2-amino-N',3-dimethyl-N'-(pyrimidin-2-yl)-N-((5-(tetrahydrofuran-3-yl)pyridin-2-yl)methyl)quinoline-6-carbohydrazide] | 70 | 42.11 | 2950 | 2.9 |
| Cc1cc2cc(C(=O)N(Cc3ccc(C4CCOCC4)cn3)N(C)c3ncccn3)ccc2nc1N [Example 218, 2-amino-N',3-dimethyl-N'-(pyrimidin-2-yl)-N-((5-(tetrahydro-2H-pyran-4-yl)pyridin-2-yl)methyl)quinoline-6-carbohydrazide] | 291 | 10.56 | 3070 | 7 |
| Cc1cc2cc(C(=O)N(Cc3ccc(-c4ccnnc4)cn3)N(C)c3ncccn3)ccc2nc1N [Example 220, 2-amino-N',3-dimethyl-N-((5-(pyridazin-4-yl)pyridin-2-yl)methyl)-N'-(pyrimidin-2-yl) quinoline-6-carbohydrazide] | 23 | 17.61 | 405 | 1.2 |
| Cc1cc2cc(C(=O)N(Cc3ccc(-c4cscn4)cn3)N(C)c3ncccn3)ccc2nc1N [Example 221, 2-amino-N',3-dimethyl-N'-(pyrimidin-2-yl)-N-((5-(thiazol-4-yl)pyridin-2-yl)methyl)quinoline-6-carbohydrazide] | 69 | 27.16 | 1870 | 2.3 |
| Cc1cc2cc(C(=O)N(Cc3ncc(-c4cccnc4)cc3F)N(C)c3ncccn3)ccc2nc1N [Example 222, 2-amino-N-((5-fluoro-[3,3'-bipyridine]-6-yl)methyl)-N',3-dimethyl-N'-(pyrimidin-2-yl)quinoline-6-carbohydrazide] | 20 | 16.40 | 328 | 1.4 |
| Cc1cc2cc(C(=O)N(Cc3ccc(N4CCC(F)(F)C4)cn3)N(C)c3ncccn3)ccc2nc1N [Example 224, 2-amino-N-((5-(3,3-difluoropyrrolidin-1-yl)pyridin-2-yl)methyl)-N',3-dimethyl-N'-(pyrimidin-2-yl)quinoline-6-carbohydrazide] | 470 |  | > 10000 | 16 |
| COCc1ncsc1-c1ccc(CN(C(=O)c2ccc3nc(N)c(C)cc3c2)N(C)c2ncccn2)nc1 [Example 226, 2-amino-N-((5-(4-(methoxymethyl)thiazol-5-yl)pyridin-2-yl)methyl)-N',3-dimethyl-N'-(pyrimidin-2-yl)quinoline-6-carbohydrazide] | 28 | 31.82 | 891 | 5 |
| Cc1cc2cc(C(=O)N(Cc3ccc(-c4nncs4)cn3)N(C)c3ncccn3)ccc2nc1N [Example 229, N-((5-(1,3,4-thiadiazol-2-yl)pyridin-2-yl)methyl)-2-amino-N',3-dimethyl-N'-(pyrimidin-2-yl)quinoline-6-carbohydrazide] | 14 | 47.86 | 670 | 3.7 |
